For orientation: inhibition means the percentage by which the read-out fell short of the control. Broadly, the IC50 is the midpoint of a concentration-inhibition curve.

Like-named read-outs stand apart in the source and are kept apart here.

The subject of one assay is RBL-2H3 cells. The assay is described as follows: 3H-serotonin release induced by ADNP/DNP.HSA immunogenic stimulation. The format is cell-based, rat. To be noted: for effect on serotonin release (RBL cells immunogenic activation): statement in words on Table 3; for inhibition at 5 µM: RBL-2H3, read-out: 3H-serotonin net release inhibition (%), 5µM.
Assay [1] addresses T1, CB2 receptor (Rattus norvegicus, UniProt Q9QZN9).
T1 construct: 30 µg membrane proteins prepared in item a); endogenous in cells; host or cells: RBL-2H3 cells (plasma membrane preparation)
T1 sequence (Q9QZN9 1-360): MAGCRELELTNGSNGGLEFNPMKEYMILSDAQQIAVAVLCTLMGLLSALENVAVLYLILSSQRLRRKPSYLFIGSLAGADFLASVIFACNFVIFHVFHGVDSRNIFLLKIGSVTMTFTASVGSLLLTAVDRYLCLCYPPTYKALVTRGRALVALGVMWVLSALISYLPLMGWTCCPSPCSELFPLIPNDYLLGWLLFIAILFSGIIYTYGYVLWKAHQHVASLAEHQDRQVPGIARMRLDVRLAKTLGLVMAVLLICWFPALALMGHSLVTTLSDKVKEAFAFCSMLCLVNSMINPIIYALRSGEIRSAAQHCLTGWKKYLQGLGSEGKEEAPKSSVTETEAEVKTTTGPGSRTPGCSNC
Kind of assay: 3H-WIN 55,212-2 binding displacement on RBL-2H3 cell membranes.

The target in assay [2] is CB2 receptor (Homo sapiens, UniProt P34972). The following applies: CB2 versus CB1 central receptor; cited from earlier work.
Assay [3] concerns cerebellar granule cell culture. Kind of assay: neuroprotective effect against glutamate-induced cell death (MTT). Format: cell-based, mouse. The following applies: for EC50: glutamate 500 µM for 5 minutes, compound added for 10 minutes, 15 minutes after removing glutamate, MTT after 24 hours, means ± SEM.
Assay [4] deals with T1, CB2 receptor. Kind of assay: saturation curve of 3H-WIN 55,212-2 binding to RBL-2H3 cell membranes. To be noted: 3H-WIN 55,212-2 0.5 to 20 nM, 30 µg membrane proteins, 30°C 60 min.
Where [5] appears, read: competitor 10 µM, amides in 0.1% DMSO, Anandamide and Nabilone in 0.1% ethanol.

Chain of CB2 receptor (Homo sapiens, UniProt P34972) (P34972 whole entry): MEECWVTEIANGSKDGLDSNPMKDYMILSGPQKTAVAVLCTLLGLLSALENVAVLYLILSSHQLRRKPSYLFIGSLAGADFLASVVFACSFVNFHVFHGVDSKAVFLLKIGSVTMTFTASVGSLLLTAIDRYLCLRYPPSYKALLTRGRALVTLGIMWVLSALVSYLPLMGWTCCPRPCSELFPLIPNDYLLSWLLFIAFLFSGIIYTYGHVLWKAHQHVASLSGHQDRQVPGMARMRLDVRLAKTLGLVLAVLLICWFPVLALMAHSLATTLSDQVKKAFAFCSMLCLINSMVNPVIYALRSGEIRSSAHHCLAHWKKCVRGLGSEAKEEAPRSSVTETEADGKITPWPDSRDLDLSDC

As for `CCCCC/C=C\C/C=C\C/C=C\C/C=C\CCCC(=O)NCCO` [Anandamide, arachidonylethanolamide, reference compound], the inhibition at 12.5 µM with RBL-2H3 cells (Rattus norvegicus, RBL-2H3, read-out: 3H-serotonin net release inhibition (%), 12.5µM, -WIN) stood at 7%. For the same compound, the “3H-serotonin net release (%)” value with RBL-2H3 cells (concentration not given, 0.1% DMSO and 0.1% ethanol) is given as 100%. In addition, the “effect on serotonin release (RBL cells immunogenic activation)” value (from here on “effect on serotonin release”) with RBL-2H3 cells is “unable to affect serotonin release”. Further, on CB2 receptor [1] (setting [5]), the “Displacement (%)” value is 95% and the Specific binding amounted to 99. Moreover, the “affinity to the CB2 receptor, folds inferior to that of the central receptor” value at CB2 receptor [2] is reported as 30 folds. Also, the EC50 entry in assay [3] is “no effect (3)”. Besides, in assay [3] (glutamate 500 µM, anandamide up to 100 µM), the “protective effect against cell death induced by glutamate” value is recorded as “not effective”.
For `CCCCCCC(C)(C)c1cc(O)c2c(c1)OC(C)(C)C1CCC(=O)CC21` (stereo not shown) [Nabilone, 3-(1,1-dimethylheptyl)-6,6a,7,8,10,10a-hexahydro-1-hydroxy-6,6-dimethyl-9H-dibenzo-[b,d]-pyran-9-one, reference compound], the “3H-serotonin net release (%)” value in the assay on RBL-2H3 cells (10µM, 0.1% DMSO and 0.1% ethanol) is recorded as 0%. Besides, the inhibition at 5 µM turned out to be 50% in the assay on RBL-2H3 cells (Rattus norvegicus, + anandamide (12.5 µM)) and 90% in the assay with RBL-2H3 cells (Rattus norvegicus, -anandamide). Besides, the EC50 in the assay on RBL-2H3 cells (Rattus norvegicus, RBL-2H3, read-out: ED50 (µM), inhibition of 3H-serotonin release, +anandamide (12.5 µM)) worked out at 5 µM; with RBL-2H3 cells (Rattus norvegicus, RBL-2H3, read-out: ED50 (µM), inhibition of 3H-serotonin release, -anandamide), 2.8 µM; in the assay on RBL-2H3 cells (Rattus norvegicus, RBL-2H3, read-out: ED50 (µm), inhibition of serotonin release, 0.1% DMSO and 0.1% ethanol), 2.8 µM; in assay [3] (Mus musculus, read-out: EC50), 3.9 ± 1.1 µM. Besides, the “effect on serotonin release” value in the assay with RBL-2H3 cells is “able to inhibit, in a concentration-dependent way”. In addition, the IC50 on CB2 receptor [1] (IC50 (nM), RBL-2H3 cell membranes, 1% DMSO, means ± SEM) is 2.6 ± 1.4 nM. Also, the “Displacement (%)” value at CB2 receptor [1] (setting [5]) amounted to 100%.
Regarding `Cc1c(C(=O)c2cccc3ccccc23)c2cccc3c2n1[C@H](CN1CCOCC1)CO3` [WIN 55,212-2, reference compound], the Bmax at CB2 receptor [4] lay within 100 to 250 pM. Also, the “3H-serotonin net release inhibition (%)” value in the assay with RBL-2H3 cells (30µM, + anandamide (12.5 µM)) was 36%; with RBL-2H3 cells (30µM, -anandamide) it was 100%; in the assay on RBL-2H3 cells (WIN 55,212-2 30 µm, + 12.5µM anandamide) it was 15%; in the assay with RBL-2H3 cells (WIN 55,212-2 30 µm, + 12.5µM arachidonic acid), 59%; in the assay on RBL-2H3 cells (WIN 55,212-2 30 µm, + 12.5µM ethanolamide + 12.5µM arachidonic acid), 61%; in the assay with RBL-2H3 cells (WIN 55,212-2 30 µm, + 12.5µM ethanolamine) it was 72%. Besides, the “3H-serotonin net release inhibition (%)” value in the assay with RBL-2H3 cells (WIN 55,212-2 30 µm, DNP.HSA alone) was found to be 69%. The “3H-serotonin net release (%)” value in the assay with RBL-2H3 cells (50µM, 0.1% DMSO and 0.1% ethanol) worked out at 0%. The EC50 with RBL-2H3 cells (inhibition of 3H-serotonin release, +anandamide (12.5 µM), read-out: ED50 (the source's name)) worked out at 40 µM; in the assay on RBL-2H3 cells (inhibition of 3H-serotonin release, -anandamide, read-out: ED50 (the source's name)), 6.4 µM; with RBL-2H3 cells (inhibition of serotonin release, 0.1% DMSO and 0.1% ethanol, read-out: ED50 (µm)), 6.4 µM. Besides, the “effect on serotonin release” value with RBL-2H3 cells is on record as “able to inhibit, in a concentration-dependent way”.

Values taken from patent EP0799188B1, “AMIDES OF MONO AND DICARBOXYLIC ACIDS WITH GLYCOSAMINES, SELECTIVELY ACTIVE ON THE CANNABINOID PERIPHERAL RECEPTOR” (LIFEGROUP S.p.A., priority 1994, dated 1996).
